From patent publication US20240108637A1, “EPITE[…] AND/OR A STEROID SULFATASE INHIBITOR FOR USE IN TREATING OR IMPROVING AGE RELATED COGNITIVE IMPAIRMENT” (U[…] DE OLAVIDE, priority 2020, published 2024)
Entries after “also recorded” stand apart in the source; their conditions may differ.

Key:
[1] = test system: GMC101 strain expressing human β-amyloid in muscle; assay: Alzheimer's disease model: thermodependent paralysis of GMC101 strain; format: in vivo, C. elegans; details: 1 μg/ml, FIG. 3h, FIG. 4b
Description: (§1) In this model, GFP-labelled dopaminergic neurons die due to α-synuclein toxicity. […] We also tested two different strains of Alzheimer's disease (AD) in worms, where immobility is caused by expression of βA protein in muscle cells.

[2] = test system: 16-month-old mice; assay: Y maze test; format: in vivo; details: aged animals, Y maze 6 minutes, FIG. 20
Procedure: The “Open Field” is a test where the mouse must explore an unknown space for 15 minutes. In this test, both mobility and habituation (cognitive parameter that measures the individual's ability to recognize the environment) can be studied. On the other hand, the “Y maze” test is a test where the mouse explores the maze for 6 minutes. This test evaluates the distance traveled as a measure of mobility and the ability to visit triplets of arms without repeating any of them as a sign of immediate memory.

[3] = test system: CL2006 strain expressing human β-amyloid in muscle; assay: Alzheimer's disease model: paralysis with age of CL2006 strain; format: in vivo, C. elegans; details: Log-rank (Mantel-Cox) test p=0.007, FIG. 12g
Description: as §1

## NS(=O)(=O)Oc1ccc2c3c(c(=O)oc2c1)CCCCC3 [STX64]
[1]
  paralysis phenotype: the paralysis phenotype is ameliorated; also recorded: delayed paralysis
[2]
  immediate memory: tend to improve
[2]; listed as STX
  immediate memory: are improved
[3]
  paralysis with age: delayed paralysis; also recorded: ameliorated
